Measured values as given in US8846675B2, “N-linked heterocyclic receptor agonists for the treatment of diabetes and metabolic disorders” (Cymabay Therapeutics, Inc., priority 2007, dated 2014).

These molecules were tested against T1, IC-GPCR2 (Homo sapiens, UniProt Q8TDV5) (assay: Stimulation of cAMP in CHO cell line stably expressing IC-GPCR2 (HTRF cAMP dynamic kit)). Conditions: 3 μM compound; relative to maximal activity of 5-Ethyl-2-{4-[4-(4-tetrazol-1-yl-phenoxymethyl)-thiazol-2-yl]-piperidin-1-yl}-pyrimidine (=100%); IC-GPCR2 stably expressing CHO cells, 30 minutes.
T1 construct: expressed in transfected cells
T1 sequence (Q8TDV5 1-335 S309L): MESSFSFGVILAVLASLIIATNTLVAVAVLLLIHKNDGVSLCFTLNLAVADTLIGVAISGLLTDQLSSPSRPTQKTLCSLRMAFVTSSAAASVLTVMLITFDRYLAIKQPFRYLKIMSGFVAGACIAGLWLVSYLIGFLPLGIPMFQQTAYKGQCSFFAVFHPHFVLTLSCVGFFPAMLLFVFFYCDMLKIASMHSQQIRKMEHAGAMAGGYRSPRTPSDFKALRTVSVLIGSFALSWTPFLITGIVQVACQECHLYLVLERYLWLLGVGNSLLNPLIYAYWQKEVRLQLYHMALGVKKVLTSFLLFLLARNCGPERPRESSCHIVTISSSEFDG
Type: cell-based
How it was run: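 CHO cells stably expressing IC-GPCR2, with parental CHO as counter-screen, were exposed to compound (0.00003–10 μM) for 30 min in Ham's F12. Intracellular cAMP read by HTRF competitive immunoassay (665/620 nm ratio). Activity at 3 μM expressed as % of maximal signal from a reference agonist.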

Structure (SMILES)	% activity at 3 μM
FC(F)(F)c1ccc(N2CCC(n3ncc(COc4ccc(-n5cnnn5)nc4)n3)CC2)nc1 [Example 82, 2-(4-(4-((6-(1H-tetrazol-1-yl)pyridin-3-yloxy)methyl)-2H-1,2,3-triazol-2-yl)piperidin-1-yl)-5-(trifluoromethyl)pyridine]	64.90%
CC1CN(C(=O)OC(C)(C)C)CCC1n1ncc(COc2ccc(-n3cnnn3)nc2)n1 (stereo not drawn) [Example 83, tert-Butyl 4-(4-((6-(1H-tetrazol-1-yl)pyridin-3-yloxy)methyl)-2H-1,2,3-triazol-2-yl)-3-methylpiperidine-1-carboxylate]	63.14%
CC1CN(c2ncc(C(F)(F)F)cn2)CCC1n1ncc(COc2ccc(-n3cnnn3)nc2)n1 (stereo not drawn) [Example 84, 2-(4-(4-((6-(1H-Tetrazol-1-yl)pyridin-3-yloxy)methyl)-2H-1,2,3-triazol-2-yl)-3-methylpiperidin-1-yl)-5-(trifluoromethyl)pyrimidine]	78.05%
CCc1cnc(N2CCC(n3ncc(COc4ccc(-n5cnnn5)nc4)n3)C(C)C2)nc1 (stereo not drawn) [Example 85, 2-(4-(4-((6-(1H-Tetrazol-1-yl)pyridin-3-yloxy)methyl)-2H-1,2,3-triazol-2-yl)-3-methylpiperidin-1-yl)-5-ethylpyrimidine]	76.12%
Cc1cnc(N2CCC(n3ncc(COc4ccc(-n5cnnn5)nc4)n3)C(C)C2)nc1 (stereo not drawn) [Example 86, 2-(4-(4-((6-(1H-Tetrazol-1-yl)pyridin-3-yloxy)methyl)-2H-1,2,3-triazol-2-yl)-3-methylpiperidin-1-yl)-5-methylpyrimidine]	71.39%
O=C1CCCN1c1ccc(OCc2cnn(C3CCN(c4ncc(C(F)(F)F)cn4)CC3)n2)cc1 [Example 99, 1-(4-{2-[1-(5-Trifluoromethyl-pyrimidin-2-yl)-piperidin-4-yl]-2H-[1,2,3]triazol-4-ylmethoxy}-phenyl)-pyrrolidin-2-one]	56.81%
FC(F)(F)c1cnc(N2CCC(n3ncc(COCc4ccccc4)n3)CC2)nc1 [Example 100, 2-[4-(4-benzyloxymethyl-[1,2,3]triazol-2-yl)-piperidin-1-yl]-5-trifluoromethyl-pyrimidine]	10.69%
CC(C)COC(=O)N1CCC(n2ncc(COc3ccc(-n4cnnn4)cc3F)n2)CC1 [Example 101, Isobutyl 4-(4-((2-fluoro-4-(1H-tetrazol-1-yl)phenoxy)methyl)-2H-1,2,3-triazol-2-yl)piperidine-1-carboxylate]	50.67%
O=C(OCc1ccccc1)N1CCC(n2ncc(COc3ccc(-n4cnnn4)cc3F)n2)CC1 [Example 102, Benzyl 4-(4-((2-fluoro-4-(1H-tetrazol-1-yl)phenoxy)methyl)-2H-1,2,3-triazol-2-yl)piperidine-1-carboxylate]	38.98%
CC(C)COC(=O)N1CCC(n2ncc(COc3ccc(S(C)(=O)=O)cc3F)n2)CC1 [Example 103, Isobutyl 4-(4-((2-fluoro-4-(methylsulfonyl)phenoxy)methyl)-2H-1,2,3-triazol-2-yl)piperidine-1-carboxylate]	51.30%
CS(=O)(=O)c1ccc(OCc2cnn(C3CCN(C(=O)OCc4ccccc4)CC3)n2)c(F)c1 [Example 104, Benzyl 4-(4-((2-fluoro-4-(methylsulfonyl)phenoxy)methyl)-2H-1,2,3-triazol-2-yl)piperidine-1-carboxylate]	28.40%
CCOC(=O)c1cnc(N2CCC(n3ncc(COc4ccc(S(C)(=O)=O)cc4F)n3)CC2)nc1 [Example 105, Ethyl 2-(4-(4-((2-fluoro-4-(methylsulfonyl)phenoxy)methyl)-2H-1,2,3-triazol-2-yl)piperidin-1-yl)pyrimidine-5-carboxylate]	10.65%
CS(=O)(=O)c1ccc(OCc2cnn(C3CCN(c4ncc(F)cn4)CC3)n2)c(F)c1 [Example 107, 5-Fluoro-2-(4-(4-((2-fluoro-4-(methylsulfonyl)phenoxy)methyl)-2H-1,2,3-triazol-2-yl)piperidin-1-yl)pyrimidine]	36.83%

Second part, the molecule after the results:

% activity at 3 μM	Structure (SMILES)
75.63%	CC1CN(c2ncc(Cl)cn2)CCC1n1ncc(COc2ccc(-n3cnnn3)nc2)n1 (stereo not drawn) [Example 87, 2-(4-(4-((6-(1H-Tetrazol-1-yl)pyridin-3-yloxy)methyl)-2H-1,2,3-triazol-2-yl)-3-methylpiperidin-1-yl)-5-chloropyrimidine]
60.96%	Clc1cnc(N2CCC(n3ncc(COc4ccc(-n5cnnn5)cc4)n3)CC2)nc1 [Example 88, 2-(4-(4-((4-(1H-Tetrazol-1-yl)phenoxy)methyl)-2H-1,2,3-triazol-2-yl)piperidin-1-yl)-5-chloropyrimidine]
48.60%	Cc1cc(-n2cnnn2)ccc1OCc1cnn(C2CCN(c3ncc(Cl)cn3)CC2)n1 [Example 89, 5-chloro-2-(4-(4-((2-Methyl-4-(1H-tetrazol-1-yl)phenoxy)methyl)-2H-1,2,3-triazol-2-yl)piperidin-1-yl)pyrimidine]
13.60%	Cc1sc(OCc2cnn(C3CCN(c4ncc(Cl)cn4)CC3)n2)nc1-c1cccnc1 [Example 90, 2-((2-(1-(5-Chloropyrimidin-2-yl)piperidin-4-yl)-2H-1,2,3-triazol-4-yl)methoxy)-5-methyl-4-(pyridin-3-yl)thiazole]
5.82%	Cc1sc(OCc2cnn(C3CCN(c4ncc(Cl)cn4)CC3)n2)nc1-c1ccncc1 [Example 91, 2-((2-(1-(5-Chloropyrimidin-2-yl)piperidin-4-yl)-2H-1,2,3-triazol-4-yl)methoxy)-5-methyl-4-(pyridin-4-yl)thiazole]
58.28%	Clc1cnc(N2CCC(n3ncc(COc4ccc(-n5ccnn5)cc4)n3)CC2)nc1 [Example 92, 2-(4-(4-((4-(1H-1,2,3-Triazol-1-yl)phenoxy)methyl)-2H-1,2,3-triazol-2-yl)piperidin-1-yl)-5-chloropyrimidine]
50.84%	Clc1cnc(N2CCC(n3ncc(COc4ccc(-n5cncn5)cc4)n3)CC2)nc1 [Example 93, 2-(4-(4-((4-(1H-1,2,4-Triazol-1-yl)phenoxy)methyl)-2H-1,2,3-triazol-2-yl)piperidin-1-yl)-5-chloropyrimidine]
49.73%	Clc1cnc(N2CCC(n3ncc(COc4ccc(-n5ccnc5)cc4)n3)CC2)nc1 [Example 94, 2-(4-(4-((4-(1H-Imidazol-1-yl)phenoxy)methyl)-2H-1,2,3-triazol-2-yl)piperidin-1-yl)-5-chloropyrimidine]
51.03%	CS(=O)(=O)c1ccc(OCc2cnn(C3CCN(c4ncc(Cl)cn4)CC3)n2)cc1 [Example 95, 5-Chloro-2-(4-(4-((4-(Methylsulfonyl)phenoxy)methyl)-2H-1,2,3-triazol-2-yl)piperidin-1-yl)pyrimidine]
28.90%	Clc1cnc(N2CCC(n3ncc(COc4ccccc4-c4nnco4)n3)CC2)nc1 [Example 96, 5-Chloro-2-{4-[4-(2-[1,3,4]oxadiazol-2-yl-phenoxymethyl)-[1,2,3]triazol-2-yl]-piperidin-1-yl}-pyrimidine]
17.16%	Clc1cnc(N2CCC(n3ncc(COc4ccc(Cl)nc4)n3)CC2)nc1 [Example 98, 5-Chloro-2-{4-[4-(6-chloro-pyridin-3-yloxymethyl)-[1,2,3]triazol-2-yl]-piperidin-1-yl}-pyrimidine]
11.46%	CCOC(=O)c1cnc(N2CCC(n3ncc(COc4ccc(-n5cnnn5)cc4F)n3)CC2)nc1 [Example 106, Ethyl 2-(4-(4-((2-fluoro-4-(1H-tetrazol-1-yl)phenoxy)methyl)-2H-1,2,3-triazol-2-yl)piperidin-1-yl)pyrimidine-5-carboxylate]
41.78%	O=C(c1ccccn1)N1CCC(n2ncc(COc3ccc(-n4cnnn4)cc3F)n2)CC1 [Example 108, (4-(4-((2-Fluoro-4-(1H-tetrazol-1-yl)phenoxy)methyl)-2H-1,2,3-triazol-2-yl)piperidin-1-yl)(pyridin-2-yl)methanone]
7.45%	O=C(c1cccc(O)n1)N1CCC(n2ncc(COc3ccc(-n4cnnn4)cc3F)n2)CC1 [Example 109, (4-(4-((2-Fluoro-4-(1H-tetrazol-1-yl)phenoxy)methyl)-2H-1,2,3-triazol-2-yl)piperidin-1-yl)(6-hydroxypyridin-2-yl)methanone]
1.30%	O=C(c1ncccc1O)N1CCC(n2ncc(COc3ccc(-n4cnnn4)cc3F)n2)CC1 [Example 110, (4-(4-((2-Fluoro-4-(1H-tetrazol-1-yl)phenoxy)methyl)-2H-1,2,3-triazol-2-yl)piperidin-1-yl)(3-hydroxypyridin-2-yl)methanone]
24.12%	Cc1cccnc1C(=O)N1CCC(n2ncc(COc3ccc(-n4cnnn4)cc3F)n2)CC1 [Example 111, (4-(4-((2-Fluoro-4-(1H-tetrazol-1-yl)phenoxy)methyl)-2H-1,2,3-triazol-2-yl)piperidin-1-yl)(3-methylpyridin-2-yl)methanone]
42.30%	O=C(c1cccnc1)N1CCC(n2ncc(COc3ccc(-n4cnnn4)cc3F)n2)CC1 [Example 112, (4-(4-((2-Fluoro-4-(1H-tetrazol-1-yl)phenoxy)methyl)-2H-1,2,3-triazol-2-yl)piperidin-1-yl)(pyridin-3-yl)methanone]
